Reference: patent US10954216B2, “BMP-signal-inhibiting compound” (RIKEN, priority 2016, dated 2021)
pIC50: −log10 of the molar value.

Each compound was assayed on BMP signal in MDA-231-D-BREFluc/Rluc cells (assay: BMP signal inhibitory effect (AlphaScreen SureFire SMAD1 p-Ser463/465, BMP-6 stimulation)). Conditions: not given.
Format: cell-based
Procedure, shortened: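 Read-out was phospho-SMAD1 (Ser463/465) by AlphaScreen SureFire after 30 min BMP-6 stimulation at 37° C. Before stimulation, MDA-231-D-BREFluc/Rluc cells were incubated with test compound at 37° C for 2 h.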

| SMILES | pIC50 |
| --- | --- |
| CCn1cc(-c2ccnc(Nc3ccc(C(=O)N4CC5CCC(C4)N5C)cc3)n2)c(-c2cccnc2)n1 [Example 117, (4-((4-(1-Ethyl-3-(pyridin-3-yl)-1H-pyrazol-4-yl)pyrimidin-2-yl)amino)phenyl) (8-methyl-3,8-diazabicyclo [3.2.1]octan-3-yl)methanone] | 7.92 |
| CCn1cc(-c2ccnc(Nc3ccc(C(=O)N4CC5CCC(C4)N5C4CCCC4)cc3)n2)c(-c2cccnc2)n1 [Example 118, (8-Cyclopentyl-3,8-diazabicyclo [3.2.1]octan-3-yl) (4-((4-(1-ethyl-3-(pyridin-3-yl)-1H-pyrazol-4-yl)pyrimidin-2-yl)amino)phenyl) methanone] | 8.07 |

Same assay, conditions: BMP-6 stimulated MDA-231-D-BREFluc/Rluc cells, phospho-SMAD1 AlphaScreen; read-out: IC50

| SMILES | pIC50 |
| --- | --- |
| CCn1cc(-c2ccnc(Nc3ccc4c(c3)CCN(C3COC3)C4)n2)c(-c2cccnc2)n1 [Example 95, N-(4-(1-Ethyl-3-(pyridin-3-yl)-1H-pyrazol-4-yl)pyrimidin-2-yl)-2-(oxetan-3-yl)-1,2,3,4-tetrahydroisoquinolin-6-amine] | 7.83 |
| CCn1cc(-c2ccnc(Nc3ccc(N4CCN(CC5CC(C)(C)O5)CC4)cc3)n2)c(-c2cccnc2)n1 (stereo not shown) [Example 96, N-(4-(4-((4,4-dimethyloxetan-2-yl)methyl)piperazin-1-yl)phenyl)-4-(1-ethyl-3-(pyridin-3-yl)-1H-pyrazol-4-yl)pyrimidin-2-amine] | 7.68 |
| CCn1cc(-c2ccnc(Nc3ccc(N4CCN(CC5CCOC5)CC4)cc3)n2)c(-c2cccnc2)n1 (stereo not shown) [Example 97, 4-(1-Ethyl-3-(pyridin-3-yl)-1H-pyrazol-4-yl)-N-(4-(4-((tetrahydrofuran-3-yl)methyl)piperazin-1-yl)phenyl)pyrimidin-2-amine] | 7.82 |
| CCn1cc(-c2ccnc(Nc3ccc(N4CCN(CC5(C)COC5)CC4)cc3)n2)c(-c2cccnc2)n1 [Example 98, 4-(1-ethyl-3-(pyridin-3-yl)-1H-pyrazol-4-yl)-N-(4-(4-((3-methyloxetan-3-yl)methyl)piperazin-1-yl)phenyl)pyrimidin-2-amine] | 7.63 |
| CCn1cc(-c2ccnc(Nc3ccc(N4CCN(CC5COC5)CC4)cc3)n2)c(-c2cccnc2)n1 [Example 99, 4-(1-Ethyl-3-(pyridin-3-yl)-1H-pyrazol-4-yl)-N-(4-(4-(oxetan-3-ylmethyl)piperazin-1-yl)phenyl)pyrimidin-2-amine] | 7.70 |
| CCn1cc(-c2ccnc(Nc3ccc(C4CCCN(CCOC)C4)cc3)n2)c(-c2cccnc2)n1 (stereo not shown) [Example 100, 4-(1-Ethyl-3-(pyridin-3-yl)-1H-pyrazol-4-yl)-N-(4-(1-(2-methoxyethyl)piperidin-3-yl)phenyl)pyrimidin-2-amine] | 7.73 |
| COCCN1CCN(c2ccc(Nc3nccc(-c4cn(CC5COC5)nc4-c4cccnc4)n3)cc2)CC1 [Example 102, N-(4-(4-(2-Methoxyethyl)piperazin-1-yl)phenyl)-4-(1-(oxetan-3-ylmethyl)-3-(pyridin-3-yl)-1H-pyrazol-4-yl)pyrimidin-2-amine] | 7.30 |
| c1cncc(-c2nn(C3COC3)cc2-c2ccnc(Nc3ccc(N4CCN(CC5CC5)CC4)cc3)n2)c1 [Example 103, N-(4-(4-(Cyclopropylmethyl)piperazin-1-yl)phenyl)-4-(1-(oxetan-3-yl)-3-(pyridin-3-yl)-1H-pyrazol-4-yl)pyrimidin-2-amine] | 7.98 |
| CCn1cc(-c2ccnc(Nc3ccc(N4CCN(CC(O)COC)CC4)cc3)n2)c(-c2cccnc2)n1 (stereo not shown) [Example 105, 1-(4-(4-((4-(1-Ethyl-3-(pyridin-3-yl)-1H-pyrazol-4-yl)pyrimidin-2-yl)amino)phenyl)piperazin-1-yl)-3-methoxypropan-2-ol] | 7.47 |
| CCn1cc(-c2ccnc(Nc3ccc4c(c3)CN(CC(C)(C)O)CC4)n2)c(-c2cccnc2)n1 [Example 106, 1-(7-((4-(1-Ethyl-3-(pyridin-3-yl)-1H-pyrazol-4-yl)pyrimidin-2-yl)amino)-3,4-dihydroisoquinolin-2(1H)-yl)-2-methylpropan-2-ol] | 8.46 |
| COCCn1cc(-c2ccnc(Nc3ccc(OC4CN(CC(C)(C)O)C4)cc3)n2)c(-c2cccnc2)n1 [Example 107, 1-(3-(4-((4-(1-(2-Methoxyethyl)-3-(pyridin-3-yl)-1H-pyrazol-4-yl)pyrimidin-2-yl)amino)phenoxy)azetidin-1-yl)-2-methylpropan-2-ol] | 7.61 |
| CCn1cc(-c2ccnc(Nc3ccc(OC4CN(CC(C)(C)O)C4)cc3)n2)c(-c2cccnc2)n1 [Example 108, 1-(3-(4-((4-(1-Ethyl-3-(pyridin-3-yl)-1H-pyrazol-4-yl)pyrimidin-2-yl)amino)phenoxy)azetidin-1-yl)-2-methylpropan-2-ol] | 7.88 |
| CCn1cc(-c2ccnc(Nc3ccc4c(c3)CCN(CC(O)COC)C4)n2)c(-c2cccnc2)n1 (stereo not shown) [Example 109, 1-(6-((4-(1-Ethyl-3-(pyridin-3-yl)-1H-pyrazol-4-yl)pyrimidin-2-yl)amino)-3,4-dihydroisoquinolin-2 (1H)-yl)-3-methoxypropan-2-ol] | 8.24 |
| COCC(O)CN1CCN(c2ccc(Nc3nccc(-c4cn(C5COC5)nc4-c4cccnc4)n3)cc2)CC1 (stereo not shown) [Example 110, 1-Methoxy-3-(4-(4-((4-(1-(oxetan-3-yl)-3-(pyridin-3-yl)-1H-pyrazol-4-yl)pyrimidin-2-yl)amino)phenyl)piperazin-1-yl)propan-2-ol] | 7.48 |
| COCC(O)CN1CCN(c2ccc(Nc3nccc(-c4cn(CC(C)(C)O)nc4-c4cccnc4)n3)cc2)CC1 (stereo not shown) [Example 111, 1-(4-(2-((4-(4-(2-Hydroxy-3-methoxypropyl)piperazin-1-yl)phenyl)amino)pyrimidin-4-yl)-3-(pyridin-3-yl)-1H-pyrazol-1-yl)-2-methylpropan-2-ol] | 7.56 |
| CCn1cc(-c2ccnc(Nc3ccc(CCN4CCN(C)CC4)cc3)n2)c(-c2cccnc2)n1 [Example 112, 4-(1-ethyl-3-(pyridin-3-yl)-1H-pyrazol-4-yl)-N-(4-(2-(4-methylpiperazin-1-yl)ethyl)phenyl)pyrimidin-2-amine] | 7.93 |
| CCn1cc(-c2ccnc(Nc3ccc(C4CCCN(C)C4)cc3)n2)c(-c2cccnc2)n1 (stereo not shown) [Example 113, 4-(1-Ethyl-3-(pyridin-3-yl)-1H-pyrazol-4-yl)-N-(4-(1-methylpiperidin-3-yl)phenyl)pyrimidin-2-amine] | 8.10 |
| CCn1cc(-c2ccnc(Nc3cccc(C4CCN(C)CC4)c3)n2)c(-c2cccnc2)n1 [Example 114, 4-(1-Ethyl-3-(pyridin-3-yl)-1H-pyrazol-4-yl)-N-(3-(1-methylpiperidin-4-yl)phenyl)pyrimidin-2-amine] | 9.05 |
| CCn1cc(-c2ccnc(Nc3ccc4c(c3)CCN(C)CC4)n2)c(-c2cccnc2)n1 [Example 115, N-(4-(1-Ethyl-3-(pyridin-3-yl)-1H-pyrazol-4-yl)pyrimidin-2-yl)-3-methyl-2,3,4,5-tetrahydro-1H-benzo [d] azepin-7-amine] | 8.96 |
| CCn1cc(-c2ccnc(Nc3ccc(C(=O)N4CCN(C)CC4)cc3)n2)c(-c2cccnc2)n1 [Example 116, (4-((4-(1-Ethyl-3-(pyridin-3-yl)-1H-pyrazol-4-yl)pyrimidin-2-yl)amino)phenyl)(4-methylpiperazin-1-yl)methanone] | 7.82 |
| CCn1cc(-c2ccnc(Nc3ccc(C(=O)N4CCN(C(C)C)CC4)cc3)n2)c(-c2cccnc2)n1 [Example 119, (4-((4-(1-Ethyl-3-(pyridin-3-yl)-1H-pyrazol-4-yl)pyrimidin-2-yl)amino)phenyl) (4-isopropylpiperazin-1-yl)methanone] | 8.30 |
| CCn1cc(-c2ccnc(Nc3ccc(C(=O)N4CCN(C5CCCCC5)CC4)cc3)n2)c(-c2cccnc2)n1 [Example 120, (4-Cyclohexylpiperazin-1-yl) (4-((4-(1-ethyl-3-(pyridin-3-yl)-1H-pyrazol-4-yl)pyrimidin-2-yl)amino)phenyl) methanone] | 8.21 |
| CC(C)N1CCN(C(=O)c2ccc(Nc3nccc(-c4cn(Cc5ccc(F)cc5)nc4-c4cccnc4)n3)cc2)CC1 [Example 121, (4-((4-(1-(4-Fluorobenzyl)-3-(pyridin-3-yl)-1H-pyrazol-4-yl)pyrimidin-2-yl)amino)phenyl)(4-isopropylpiperazin-1-yl)methanone] | 7.71 |
| CCn1cc(-c2ccnc(Nc3cccc(C(=O)N4CCN(C(C)C)CC4)c3)n2)c(-c2cccnc2)n1 [Example 122, (3-((4-(1-Ethyl-3-(pyridin-3-yl)-1H-pyrazol-4-yl)pyrimidin-2-yl)amino)phenyl)(4-isopropylpiperazin-1-yl)methanone] | 7.63 |
| CC(C)N1CCN(C(=O)c2ccc(Nc3nccc(-c4cn(CCc5ccccc5)nc4-c4cccnc4)n3)cc2)CC1 [Example 123, (4-lsopropylpiperazin-1-yl) (4-((4-(1-phenethyl-3-(pyridin-3-yl)-1H-pyrazol-4-yl)pyrimidin-2-yl)amino)phenyl) methanone] | 7.90 |
| CCn1cc(-c2ccnc(Nc3ccc4c(c3)CCN(C3COC3)CC4)n2)c(-c2cccnc2)n1 [Example 125, N-(4-(1-Ethyl-3-(pyridin-3-yl)-1H-pyrazol-4-yl)pyrimidin-2-yl)-3-(oxetan-3-yl)-2,3,4,5-tetrahydro-1H-benzo [d] azepin-7-amine] | 8.00 |
| CCn1cc(-c2ccnc(Nc3cnn(C4CCN(C5COC5)CC4)c3)n2)c(-c2cccnc2)n1 [Example 128, 4-(1-Ethyl-3-(pyridin-3-yl)-1H-pyrazol-4-yl)-N-(1-(1-(oxetan-3-yl)piperidin-4-yl)-1H-pyrazol-4-yl)pyrimidin-2-amine] | 7.49 |
| CCn1cc(-c2ccnc(Nc3ccc(N4CCN(C5CCOCC5)CC4)cc3)n2)c(-c2cccnc2)n1 [Example 130, 4-(1-Ethyl-3-(pyridin-3-yl)-1H-pyrazol-4-yl)-N-(4-(4-(tetrahydro-2H-pyran-4-yl)piperazin-1-yl)phenyl)pyrimidin-2-amine] | 7.91 |
| CC(C)(O)Cn1cc(-c2ccnc(Nc3ccc4c(c3)CCN(C3COC3)C4)n2)c(-c2cccnc2)n1 [Example 131, 2-Methyl-1-(4-(2-((2-(oxetan-3-yl)-1,2,3,4-tetrahydroisoquinolin-6-yl)amino)pyrimidin-4-yl)-3-(pyridin-3-yl)-1H-pyrazol-1-yl)propan-2-ol] | 7.78 |
